In paper PMC13598332, “Selective activation of tetrodotoxin-sensitive sodium channels by AaH-II drives arrhythmogenic late Na^+ current in the heart” (Europace, 2026):
Read-outs that look alike come from different tables or passages of the source.

Columns and labels:
[1] = system: human iPS-derived ventricular cardiomyocytes; assay type: cell-based; details: 0.1 nM; dynamic clamp, 1.43 Hz, 35–37°C; n = 10
hNav1.7 = hNav1.7 (Homo sapiens, UniProt Q15858); assay type: cell-based
Wistar-Han rats = assay type: in vivo, rat; details: for QTc / RR / P wave / PR / QRS / T wave area: mean ± SEM
hNav1.5 [2] = target: T1, hNav1.5 (Homo sapiens, UniProt Q14524); test: Manual patch-clamp on HEK293-Nav1.5; assay type: cell-based; details: 10 nM; HP −120 mV, 1000-ms step to −20 mV, RT
Method: Whole-cell Nav currents were recorded at RT from HEK293 stably expressing hNav1.5, using an Axopatch 200A amplifier (Axon Instruments, Molecular Devices). Voltage-clamp protocols were applied using the pClamp 10.4 software suite (Axon Instruments), interfaced with the electrophysiological setup through a Digidata 1440A digitizer (Axon Instruments). Patch-clamp pipettes were fabricated from borosilicate glass capillaries (outer diameter: 1.5 mm; inner diameter: 0.86 mm; Sutter Instrument) using a P-97 micropipette puller (Sutter Instrument), yielding a pipette resistance of 0.8–1.5 MΩ when filled with the internal solution. The internal solution contained (in mM) 10 CsCl, 110 CsF, 10 NaCl, 10 EGTA, and 10 HEPES (pH 7.2, osmolarity 280 mOsm). The external solution contained (in mM) 100 NaCl, 4 KCl, 40 NMDG, 2 CaCl2, 1 MgCl2, 5 glucose, and 10 HEPES (pH 7.4, osmolarity 298 mOsm). All chemicals were purchased from Sigma-Aldrich. After 80% series resistance compensation, 1000-ms depolarizing steps to −20 mV were applied from a HP of −120 mV to record sodium current under control conditions, following application of 10 nM AaH-II*. Sweeps were delivered every 5 s. Current signals were filtered at 10 kHz before digitization at 50 kHz and storage. […] Data were compiled and analysed using ClampFit 11.2 (Axon Instruments), Microsoft Excel, and GraphPad Software Prism.

in vivo = details: Wistar-Han, rat, iv
hNav1.5 [3] = target: T1, hNav1.5; assay type: cell-based; details: for Na+ entry through hNav1.5 in action potential-mimicking protocol: 10 μM TTX-subtracted current
[4] = system: human iPS-derived cardiomyocytes; test: Automated patch-clamp of Na+ current in human iPS-derived cardiomyocytes; assay type: cell-based
Method: The control hiPSC cell line (ITXi002-A; IRX5-Wt[16]; RRID:CVCL_B5QD) was generated from primary dermal fibroblasts and previously characterized.[17–19] hiPSCs were maintained at 37°C, 5% CO2, 21% O2 in StemMacs PSC-Brew XF human medium (Miltenyi Biotec, #130-127-865) on culture plates coated with 0.05 mg/mL Matrigel hESC-Qualified Matrix (Corning, #354277) in DMEM F12 (Gibco, #11320033). At 75% confluency, the cells were passaged using the Gentle Cell Dissociation Reagent (StemCell Technologies, #07174).
We generated right ventricular-like cardioids on 96-well low-attachment plates using the Schmidt et al. (2023) protocol.[20] At D15.5, cardioids were pooled, dissociated, and replated as a monolayer in MW12 plates (Falcon, #353047) coated with Matrigel (Corning, #354277) for automated patch-clamp, and as single cells in 35-mm Petri dishes (NUNC #055055) coated with Matrigel for manual patch-clamp. Immediately before patch-clamp recording, cardiomyocytes were single-cell dissociated using Accutase (Sigma, #A6964).
For human iPSC-derived cardiomyocytes recordings, cells were resuspended at 300 000 cells/mL in a solution composed of 50% culture media and 50% extracellular buffer containing (in mM) 140 NaCl, 4 KCl, 2 CaCl2, 1 MgCl2, 5 glucose, and 10 HEPES (pH 7.4, osmolarity 298 mOsm) supplemented with 5 µM nifedipine. Single-hole, low-resistance chips (3–5 MΩ) were used. The intracellular solution contained (in mM) 10 KCl, 110 KF, 10 NaCl, 1 MgCl2, 1 CaCl2, 10 Ethylene Glycol Tetra-acetic Acid (EGTA), and 10 HEPES (pH 7.2, osmolarity 280 mOsm). Currents were recorded and analysed as previously described for stable cell lines.

hNav1.1 = hNav1.1 (Homo sapiens, UniProt P35498); assay type: cell-based
[5] = representative traces, test 0 mV

T1 sequence (Q14524 other isoform, or with tags, fused parts or gaps): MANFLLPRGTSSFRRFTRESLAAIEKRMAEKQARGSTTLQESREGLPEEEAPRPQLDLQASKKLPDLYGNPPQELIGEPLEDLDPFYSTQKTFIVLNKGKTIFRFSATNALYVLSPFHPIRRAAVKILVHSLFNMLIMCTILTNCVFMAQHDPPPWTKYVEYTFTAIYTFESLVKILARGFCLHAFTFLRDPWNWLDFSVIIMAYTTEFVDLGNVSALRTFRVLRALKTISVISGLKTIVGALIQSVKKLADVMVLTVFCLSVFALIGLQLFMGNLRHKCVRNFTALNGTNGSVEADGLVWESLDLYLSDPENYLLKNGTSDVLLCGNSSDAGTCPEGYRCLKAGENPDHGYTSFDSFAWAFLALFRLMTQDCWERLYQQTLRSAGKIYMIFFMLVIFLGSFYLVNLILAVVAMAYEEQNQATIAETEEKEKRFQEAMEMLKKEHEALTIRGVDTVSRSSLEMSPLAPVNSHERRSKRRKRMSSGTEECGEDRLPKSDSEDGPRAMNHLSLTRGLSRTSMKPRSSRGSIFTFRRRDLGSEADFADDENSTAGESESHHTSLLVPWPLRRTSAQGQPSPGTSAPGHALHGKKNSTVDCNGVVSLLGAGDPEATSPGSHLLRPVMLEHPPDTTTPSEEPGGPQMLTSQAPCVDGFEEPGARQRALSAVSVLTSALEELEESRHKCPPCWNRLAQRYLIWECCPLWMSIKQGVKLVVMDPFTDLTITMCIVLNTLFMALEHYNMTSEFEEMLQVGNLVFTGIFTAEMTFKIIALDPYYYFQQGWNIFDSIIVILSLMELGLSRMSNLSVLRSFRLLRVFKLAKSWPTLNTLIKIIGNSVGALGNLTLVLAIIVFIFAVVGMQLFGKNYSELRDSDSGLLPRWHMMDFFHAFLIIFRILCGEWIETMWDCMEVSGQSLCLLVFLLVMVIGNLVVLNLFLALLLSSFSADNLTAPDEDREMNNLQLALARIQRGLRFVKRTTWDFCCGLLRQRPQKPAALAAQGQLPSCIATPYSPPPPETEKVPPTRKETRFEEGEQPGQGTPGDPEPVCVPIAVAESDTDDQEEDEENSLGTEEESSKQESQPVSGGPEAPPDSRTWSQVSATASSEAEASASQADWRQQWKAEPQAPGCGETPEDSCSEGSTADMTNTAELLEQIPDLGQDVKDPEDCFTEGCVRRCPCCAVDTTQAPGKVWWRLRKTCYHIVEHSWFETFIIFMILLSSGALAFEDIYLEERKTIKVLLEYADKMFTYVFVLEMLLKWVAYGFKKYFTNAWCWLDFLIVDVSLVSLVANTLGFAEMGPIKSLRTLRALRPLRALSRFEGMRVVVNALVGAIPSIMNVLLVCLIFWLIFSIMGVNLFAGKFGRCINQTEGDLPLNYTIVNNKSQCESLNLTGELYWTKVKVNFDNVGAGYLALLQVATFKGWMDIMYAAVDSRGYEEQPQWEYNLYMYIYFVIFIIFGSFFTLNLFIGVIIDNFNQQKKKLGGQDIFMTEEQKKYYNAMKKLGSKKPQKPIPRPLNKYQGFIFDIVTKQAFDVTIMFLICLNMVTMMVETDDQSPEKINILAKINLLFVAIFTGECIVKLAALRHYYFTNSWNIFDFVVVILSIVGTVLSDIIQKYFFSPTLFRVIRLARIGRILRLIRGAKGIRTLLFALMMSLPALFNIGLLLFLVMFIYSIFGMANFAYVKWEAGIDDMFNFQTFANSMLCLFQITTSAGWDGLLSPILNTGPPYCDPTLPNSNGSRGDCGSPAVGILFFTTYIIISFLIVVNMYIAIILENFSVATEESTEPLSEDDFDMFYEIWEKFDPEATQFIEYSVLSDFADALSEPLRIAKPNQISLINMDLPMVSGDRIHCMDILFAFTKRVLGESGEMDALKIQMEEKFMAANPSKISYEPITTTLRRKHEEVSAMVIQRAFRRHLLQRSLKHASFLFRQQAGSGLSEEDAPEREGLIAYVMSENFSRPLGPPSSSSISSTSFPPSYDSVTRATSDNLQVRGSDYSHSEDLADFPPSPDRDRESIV
Sequence of hNav1.7 (Q15858 whole entry): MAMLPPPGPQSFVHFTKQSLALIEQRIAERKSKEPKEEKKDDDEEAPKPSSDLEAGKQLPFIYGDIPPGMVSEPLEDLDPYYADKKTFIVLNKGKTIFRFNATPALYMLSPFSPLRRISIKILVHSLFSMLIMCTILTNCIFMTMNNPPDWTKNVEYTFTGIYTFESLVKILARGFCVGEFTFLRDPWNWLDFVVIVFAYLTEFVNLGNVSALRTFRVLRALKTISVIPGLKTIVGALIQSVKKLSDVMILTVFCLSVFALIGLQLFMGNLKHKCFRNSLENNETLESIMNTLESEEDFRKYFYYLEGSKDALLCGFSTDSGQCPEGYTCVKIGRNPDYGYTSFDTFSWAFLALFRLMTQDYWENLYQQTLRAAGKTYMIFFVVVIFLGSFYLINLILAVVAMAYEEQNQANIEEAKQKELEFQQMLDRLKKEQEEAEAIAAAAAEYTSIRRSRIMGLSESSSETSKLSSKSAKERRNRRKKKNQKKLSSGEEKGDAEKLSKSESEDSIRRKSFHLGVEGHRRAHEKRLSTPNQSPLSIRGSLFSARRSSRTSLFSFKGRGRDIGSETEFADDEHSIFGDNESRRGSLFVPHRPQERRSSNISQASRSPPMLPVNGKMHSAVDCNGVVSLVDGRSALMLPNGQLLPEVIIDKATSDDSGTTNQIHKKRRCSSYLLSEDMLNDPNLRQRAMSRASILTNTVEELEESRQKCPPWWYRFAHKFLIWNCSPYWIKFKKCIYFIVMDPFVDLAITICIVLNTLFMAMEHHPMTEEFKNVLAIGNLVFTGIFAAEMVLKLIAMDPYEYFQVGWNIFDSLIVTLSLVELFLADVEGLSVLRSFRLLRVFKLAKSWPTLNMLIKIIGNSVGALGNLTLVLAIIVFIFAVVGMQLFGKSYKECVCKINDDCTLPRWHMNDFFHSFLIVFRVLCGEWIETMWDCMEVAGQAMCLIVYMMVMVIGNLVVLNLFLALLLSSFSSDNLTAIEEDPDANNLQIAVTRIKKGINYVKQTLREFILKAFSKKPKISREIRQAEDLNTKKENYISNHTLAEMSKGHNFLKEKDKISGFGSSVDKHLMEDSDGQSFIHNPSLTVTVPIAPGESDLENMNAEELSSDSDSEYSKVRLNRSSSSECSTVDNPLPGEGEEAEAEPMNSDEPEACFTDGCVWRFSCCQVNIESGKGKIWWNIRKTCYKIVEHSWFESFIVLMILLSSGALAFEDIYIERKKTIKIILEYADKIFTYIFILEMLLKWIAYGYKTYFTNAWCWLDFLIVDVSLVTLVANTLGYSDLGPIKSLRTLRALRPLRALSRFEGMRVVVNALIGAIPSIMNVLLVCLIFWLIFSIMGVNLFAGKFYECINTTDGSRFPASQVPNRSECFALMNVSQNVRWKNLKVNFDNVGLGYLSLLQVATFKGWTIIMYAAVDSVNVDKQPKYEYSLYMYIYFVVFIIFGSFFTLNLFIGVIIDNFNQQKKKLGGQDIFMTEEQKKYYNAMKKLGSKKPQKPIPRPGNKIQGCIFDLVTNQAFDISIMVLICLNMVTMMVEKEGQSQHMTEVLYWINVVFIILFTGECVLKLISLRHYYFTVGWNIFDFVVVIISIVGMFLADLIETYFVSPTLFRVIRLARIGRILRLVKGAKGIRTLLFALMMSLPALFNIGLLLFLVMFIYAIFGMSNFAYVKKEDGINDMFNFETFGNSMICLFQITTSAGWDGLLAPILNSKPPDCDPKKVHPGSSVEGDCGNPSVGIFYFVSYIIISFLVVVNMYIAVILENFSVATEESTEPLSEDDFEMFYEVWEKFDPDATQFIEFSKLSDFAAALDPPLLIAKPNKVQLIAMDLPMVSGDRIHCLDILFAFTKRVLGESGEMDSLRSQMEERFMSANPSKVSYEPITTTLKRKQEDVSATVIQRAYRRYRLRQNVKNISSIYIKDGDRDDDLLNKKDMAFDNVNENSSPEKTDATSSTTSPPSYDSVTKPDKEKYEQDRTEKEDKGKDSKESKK

## CC[C@H](C)[C@H](NC(=O)[C@H](Cc1ccc(O)cc1)NC(=O)CNC(=O)[C@H](CC(=O)O)NC(=O)[C@H](CCCCN)NC(=O)[C@@H](N)C(C)C)C(=O)N[C@H](C(=O)N[C@@H](CC(=O)O)C(=O)N[C@@H](CC(=O)O)C(=O)N[C@H](C(=O)N[C@@H](CC(N)=O)C(=O)N[C@H]1CSSC[C@@H](C(=O)N[C@@H](Cc2c[nH]cn2)C(N)=O)NC(=O)[C@H](CCCCN)NC(=O)CNC(=O)[C@@H]2CCCN2C(=O)CNC(=O)[C@H](CCCCN)NC(=O)[C@H]([C@@H](C)O)NC(=O)[C@H](CCCNC(=N)N)NC(=O)[C@H](C(C)C)NC(=O)[C@H](Cc2c[nH]cn2)NC(=O)[C@H](CC(=O)O)NC(=O)[C@@H]2CCCN2C(=O)[C@H](CC(C)C)NC(=O)[C@H](CCCCN)NC(=O)[C@H](Cc2ccc(O)cc2)NC(=O)[C@@H]2CSSC[C@@H]3NC(=O)[C@H](CCC(=O)O)NC(=O)[C@H](CCC(=O)O)NC(=O)[C@H](CC(N)=O)NC(=O)[C@@H]4CSSC[C@H](NC(=O)[C@H](C)NC(=O)[C@H](CC(N)=O)NC(=O)CNC(=O)[C@H](Cc5ccc(O)cc5)NC(=O)[C@@H]5CCCN5C(=O)[C@H](CO)NC(=O)[C@H](C)NC(=O)[C@H](Cc5c[nH]c6ccccc56)NC(=O)[C@H](CCC(N)=O)NC(=O)[C@H](CSSC[C@H](NC(=O)[C@H](Cc5ccccc5)NC(=O)[C@H](Cc5ccc(O)cc5)NC(=O)[C@H]([C@@H](C)O)NC1=O)C(=O)NCC(=O)N[C@@H](CCCNC(=N)N)C(=O)N[C@@H](CC(N)=O)C(=O)N[C@@H](C)C(=O)N[C@@H](Cc1ccc(O)cc1)C(=O)N4)NC(=O)[C@H](Cc1ccc(O)cc1)NC(=O)CNC(=O)[C@H](CO)NC(=O)[C@H](CCC(=O)O)NC(=O)CNC(=O)[C@H](CCCCN)NC(=O)[C@H](CC(C)C)NC(=O)[C@H](CCCCN)NC(=O)[C@H]([C@@H](C)O)NC3=O)C(=O)N[C@@H](Cc1ccc(O)cc1)C(=O)N2)C(C)C)C(C)C [AaH-II*]
[1]
  AP duration APD20, APD50, APD90: increase the AP duration
  maximal diastolic potential, AP amplitude, dV/dtmax: not significantly affected
hNav1.7; 10 nM
  INaL after 1 s depolarization: lacked sufficient INaL at 1 s depolarization
  shift in voltage-dependence of activation: AaH-II*-mediated shift in voltage-dependence of activation
hNav1.7; [5]
  concentration at which INaL is triggered / becomes noticeable: 1 nM
Wistar-Han rats; AaH-II* 3 μg/kg i.v.
  arrhythmic rats (rats / all rats): none of the rats were arrhythmic
Wistar-Han rats; AaH-II* 3 µg/kg i.v., QTc = QT/(RR/100)^1/2, n = 5
  QTc: 54.9 ± 5.2
Wistar-Han rats; AaH-II* 3 µg/kg i.v., anaesthetized rats, lead I, n = 5
  RR: 153.7 ± 5.6 ms
Wistar-Han rats; AaH-II* 3 µg/kg i.v., n = 5
  P wave: 17.5 ± 0.3 ms
  PR: 47.5 ± 1.4 ms
  QRS: 16.9 ± 1.0 ms
  T wave area: 1.8 ± 0.5 mV/ms
Wistar-Han rats; AaH-II* 15 μg/kg i.v.
  rats with A-V blocks/ PVCs (rats / all rats): in all rats
Wistar-Han rats; AaH-II* 15 µg/kg i.v., n = 6
  P wave: 18.0 ± 0.8 ms
  PR: 53.2 ± 5.4 ms
  QRS: 18.0 ± 0.6 ms
  RR: 181.6 ± 2.7 ms
  T wave area: 3.2 ± 0.5 mV/ms
Wistar-Han rats; AaH-II* 30 µg/kg i.v., n = 6
  P wave: 18.9 ± 0.8 ms
  PR: 53.8 ± 2.2 ms
  QRS: 17.8 ± 0.3 ms
  QTc: 69.5 ± 3.3
  RR: 176.8 ± 12.3 ms
  T wave area: 8.1 ± 1.9 mV/ms
hNav1.5 [2]
  effect on peak current amplitude or INaL measured at 1 sec depolarization: absence of effect
In vivo; 3 ug/kg
  level at time molar: < 0.1 nM
In vivo; 15 ug/kg
  level at time molar: 2.4 ± 0.4 nM
In vivo; 30 ug/kg
  level at time molar: 4.3 ± 0.6 nM
hNav1.5 [3]; 0.1 nM
  Na+ entry through hNav1.5 in action potential-mimicking protocol: indistinguishable from the control condition
hNav1.5 [3]; 10 nM
  Na+ entry through hNav1.5 in action potential-mimicking protocol: capable of generating a measurable Na^+ current
hNav1.5 [3]; hNav1.5, 10 nM
  INaL after 1 s depolarization: absence of AaH-II*-mediated INaL after 1 s depolarization
  shift in voltage-dependence of activation: lack of shift in the voltage-dependence of activation and inactivation
hNav1.5 [3]; hNav1.5, highest effective AaH-II* concentration
  maximal INaL stimulation (maximal AUC): ~19 fold
hNav1.5 [3]; hNav1.5, representative traces, test 0 mV
  concentration at which INaL is triggered / becomes noticeable: 0.3 nM
[4]; 0.1 nM AaH-II*
  INaL in human iPS-derived cardiomyocytes: triggered a characteristic INaL
[4]; 10 nM AaH-II*
  INaL in human iPS-derived cardiomyocytes: a greater INaL could be recorded
hNav1.1; 10 nM
  INaL after 1 s depolarization: maintained INaL after 1 s pulse
  shift in voltage-dependence of activation: large AaH-II*-triggered hyperpolarizing shift in voltage-dependence of activation
hNav1.1; highest effective AaH-II* concentration
  maximal INaL stimulation (maximal AUC): ~19 fold
hNav1.1; [5]
  concentration at which INaL is triggered / becomes noticeable: 0.1 nM
